Our source for the Ki values is patent US5753679A, “Benzyl-piperidine derivatives” (priority 1995, dated 1998).

Each structure is given as a SMILES string.

For the first experiment, the target named is T1, dopamine D4 receptor (Homo sapiens, UniProt P21917).
T1 construct: expressed in transfected cells; host or cells: CHO (Chinese Hamster Ovary) cells, D4-CHO, crude membranes
T1 sequence (P21917 1-419): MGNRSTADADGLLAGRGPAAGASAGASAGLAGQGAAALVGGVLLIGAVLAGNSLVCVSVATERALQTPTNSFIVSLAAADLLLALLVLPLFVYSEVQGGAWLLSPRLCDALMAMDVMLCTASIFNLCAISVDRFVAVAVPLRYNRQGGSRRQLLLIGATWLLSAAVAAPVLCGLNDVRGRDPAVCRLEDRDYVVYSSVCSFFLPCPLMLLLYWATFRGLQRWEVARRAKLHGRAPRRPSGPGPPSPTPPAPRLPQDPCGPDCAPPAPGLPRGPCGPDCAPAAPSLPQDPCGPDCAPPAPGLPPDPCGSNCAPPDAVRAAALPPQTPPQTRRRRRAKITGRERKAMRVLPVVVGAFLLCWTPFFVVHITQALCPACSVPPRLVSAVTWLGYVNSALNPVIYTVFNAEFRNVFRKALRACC
Kind of experiment: Binding to the D4 receptor, [3H]-spiperone displacement, D4-CHO membranes.
Details: not given
Here is the method:
The compounds were characterized by a comparison in binding behaviour to the D4 receptor and to the D2 receptor. CHO cells (Chinese Hamster Ovary) were used in the test. Crude membranes were isolated from D4 --CHO and D2 --CHO cells by ultracentrifugation and were stored at -80° C. After thawing and homogenization in a buffer solution (50 mM Tris, 1 mM EDTA, 5 mM KCI, 1.5 mM CaCI2, 4 mM MgCI2, pH 7.4) they were incubated at room temperature for 90 minutes with 200 pM [^3 H]-spiperone and increasing concentrations (1×10^-11 M to 1×10^-4 M) of the test compound. A non-specific binding by the incubation was established in the presence of 1×10^-5 M (+)-butaclamol.
The unbound radioligand was removed by filtration through a GFIC glass filter and the bound radioactivity was determined by flash emission in a Packard Top Count.
It was determined using ^3 H-spiperone. The calculation of the value was effected with a ligand.
On to `Nc1ccccc1C(=O)OC1CCN(Cc2ccccc2)CC1` [A/5a, 1-Benzyl-piperidin-4-yl 2-amino-benzoate], for which the Ki – broadly, a measure of affinity in units of concentration, obtained from inhibition or displacement – worked out at 4 nM.

Staying with this experiment, now noted: [3H]-spiperone 200 pM, D4-CHO crude membranes, room temperature, 90 minutes, pH 7.4; read-out: Ki at D4.
For the compound `COc1ccc(CN2CCC(OC(=O)c3ccccc3)CC2)cc1` [S/80c, 1-(4-Methoxy-benzyl)-piperidin-4-yl benzoate], the Ki was determined as 15 nM. `Cc1ccc(C(=O)OC2CCN(Cc3ccccc3)CC2)cc1` [F/25a, 1-Benzyl-piperidin-4-yl 4-methyl-benzoate]: the Ki was determined as 8 nM. In the case of `Cc1ccc(C(=O)OC2CCN(Cc3cccc([N+](=O)[O-])c3)CC2)cc1` [P/71a, 1-(3-Nitro-benzyl)-piperidin-4-yl 4-methyl-benzoate], the Ki is 19 nM. Still for that read-out and setting: then `O=C(OC1CCN(Cc2ccc(Cl)cc2)CC1)c1ccccc1` [H/58c, 1-(4-Chloro-benzyl)-piperidin-4-yl benzoate], with 7.3 nM. Still for that read-out and setting: then `Cc1ccccc1C(=O)OC1CCN(Cc2ccccc2)CC1` [E/24a, 1-Benzyl-piperidin-4-yl 2-methyl-benzoate], with 6 nM; and `Cc1ccc(C(=O)OC2CCN(Cc3cccc(N)c3)CC2)cc1` [Q/73a, 1-(3-Amino-benzyl)-piperidin-4-yl 4-methyl-benzoate], with 19 nM.

With `O=C(OC1CCN(Cc2ccccc2)CC1)c1ccc(I)cc1` [D/22a, 1-Benzyl-piperidin-4-yl 4-iodo-benzoate], the Ki stood at 15 nM. As for `Cc1ccc(CN2CCC(OC(=O)c3ccc(C)cc3)CC2)cc1` [L/79a, 1-(4-Methyl-benzyl)-piperidin-4-yl 4-methyl-benzoate], the Ki turned out to be 5.2 nM. Regarding `Cc1ccc(C(=O)OC2CCN(Cc3ccc(Cl)cc3)CC2)cc1` [I/59a, 1-(4-Chloro-benzyl)-piperidin-4-yl 4-methyl-benzoate], the Ki was 15 nM.

With `Cc1ccc(C(=O)OC2CCN(Cc3ccccc3)CC2)c(C)c1` [N/46a, 1-benzyl-piperidin-4-yl 2,4-dimethyl-benzoate], the Ki is 9 nM. On the same count and under the same terms, in the case of `CNc1ccc(C(=O)OC2CCN(Cc3ccccc3)CC2)cc1` [G/32b, 1-Benzyl-piperidin-4-yl 4-methylamino-benzoate] it was 5 nM; in that of `O=C(OC1CCN(Cc2ccc(Cl)cc2)CC1)c1ccc(Cl)cc1` [J/82a, 1-(4-Chloro-benzyl)-piperidin-4-yl 4-chloro-benzoate], 18 nM. Turning to `Cc1ccc(CN2CCC(OC(=O)c3ccccc3)CC2)cc1` [k/78b, 1-(4-Methyl-benzyl)-piperidin-4-yl benzoate], the Ki was 3.8 nM. The same measure, in the same setting: then `O=C(OC1CCN(Cc2ccccc2)CC1)c1ccc(Br)cc1` [C/19b, 1-Benzyl-piperidin-4-yl 4-bromo-benzoate], with 10 nM; and `Nc1ccc(C(=O)OC2CCN(Cc3ccccc3)CC2)nc1` [B/8b, 1-benzyl-piperidin-4-yl 5-amino-picolinate], with 16.4 nM; and `Cc1ccc(C(=O)OC2CCN(Cc3ccccc3N)CC2)cc1` [R/69a, 1-(2-Amino-benzyl)-piperidin-4-yl 4-methyl-benzoate], with 17.5 nM. As for `O=C(OC1CCN(Cc2cccc([N+](=O)[O-])c2)CC1)c1ccccc1` [M/70b, 1-(3-Nitro-benzyl)-piperidin-4-yl benzoate], the Ki was 13 nM. Same read-out and setting: in the case of `O=C(OC1CCN(Cc2ccc(F)cc2)CC1)c1ccccc1` [O/64b, 1-(4-Fluoro-benzyl)-piperidin-4-yl benzoate] it was 18 nM.
